# Assay results published in patent US20240180883A1, “TREATMENT OF MIGRAINE” (Allergan Pharmaceuticals International Limited, priority 2020, published 2024).
# Columns and labels:
# BCRP = target: T1, BCRP (Homo sapiens, UniProt Q9UNQ0); assay: BCRP transporter substrate in vitro; format: in vitro ADME
# T1 sequence (Q9UNQ0 1-655): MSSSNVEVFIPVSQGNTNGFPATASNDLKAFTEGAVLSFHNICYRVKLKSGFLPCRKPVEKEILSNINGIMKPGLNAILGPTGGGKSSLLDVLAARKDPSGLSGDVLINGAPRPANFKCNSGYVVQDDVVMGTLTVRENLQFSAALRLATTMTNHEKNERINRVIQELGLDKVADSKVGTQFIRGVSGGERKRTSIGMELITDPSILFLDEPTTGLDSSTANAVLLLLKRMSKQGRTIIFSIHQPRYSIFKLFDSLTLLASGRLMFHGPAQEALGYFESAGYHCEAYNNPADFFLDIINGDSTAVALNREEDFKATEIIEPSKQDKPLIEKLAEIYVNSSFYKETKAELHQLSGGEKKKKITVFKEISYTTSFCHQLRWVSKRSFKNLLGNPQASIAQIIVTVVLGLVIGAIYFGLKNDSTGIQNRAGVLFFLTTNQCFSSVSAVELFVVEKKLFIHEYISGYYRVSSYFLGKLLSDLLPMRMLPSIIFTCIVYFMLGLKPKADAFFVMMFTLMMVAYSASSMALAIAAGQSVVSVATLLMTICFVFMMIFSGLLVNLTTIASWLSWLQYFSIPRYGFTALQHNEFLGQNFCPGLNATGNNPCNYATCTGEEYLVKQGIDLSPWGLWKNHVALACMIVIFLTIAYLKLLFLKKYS
# [1] = Adverse reactions in Studies 1 and 2; format: in vivo, human
# Excerpt: In two randomized, double-blind, placebo-controlled, Ph. […] Of the ubrogepant-treated patients in these two studies, approximately 89% were female, 82% were white, 15% were Black, and 17% were of Hispanic or Latino ethnicity. The mean age at study entry was 41 years (range of 18-75 years).
# [2] = Hepatic impairment study: adverse events; format: in vivo, human
# Excerpt: Participants were queried regarding any AEs or SAEs at the time of each vital sign assessment, as well as at each visit through to the follow-up visit.
# Criteria for potential Hy's Law cases were as follows: AST or ALT≥3×ULN and Total Bilirubin≥2×ULN and Alkaline phosphatase<2×ULN.
# [3] = Studies 1 and 2, 50 mg (N = 954)
# [4] = Studies 1 and 2, 100 mg (N = 485)
# [5] = 100 mg single oral dose, all 28 participants
# [6] = 100 mg single oral dose, mild hepatic impairment
# [7] = 100 mg single oral dose, moderate hepatic impairment
# [8] = 100 mg single oral dose, normal hepatic function
# [9] = 100 mg single oral dose, severe hepatic impairment
compound,measurement,setting,value
"C[C@@H]1[C@H](c2ccccc2)C[C@H](NC(=O)c2cnc3c(c2)C[C@@]2(C3)C(=O)Nc3ncccc32)C(=O)N1CC(F)(F)F [ubrogepant, (3′S)-N-((3S,5S,6R)-6-methyl-2-oxo-5-phenyl-1-(2,2,2-trifluoroethyl)piperidin-3-yl)-2′-oxo-1′,2′,5,7-etrahydrospiro[cyclopenta[b]pyridine-6,3′-pyrrolo[2,3-b]pyridine]-3-carboxamide]",substrate of BCRP transporter,BCRP,substrate
same,Dry Mouth,[1]; [3],<1%
same,Nausea,[1]; [3],2%
same,Somnolence (includes sedation and fatigue),[1]; [3],2%
same,Dry Mouth,[1]; [4],2%
same,Nausea,[1]; [4],4%
same,Somnolence (includes sedation and fatigue),[1]; [4],3%
same,"changes in laboratory parameters, vital signs, or ECG measurements",[2]; 100 mg single oral dose,"no clinically relevant changes in laboratory parameters, vital signs, or ECG measurements"
same,"participants with TEAEs, overall",[2]; [5],17.9%
same,"participants with headache, overall",[2]; [5],2 participants
same,AE leading to study discontinuation,[2]; [6],0 n (%)
same,Any SAE,[2]; [6],0 n (%)
same,Any TEAE,[2]; [6],3 (37.5) n (%)
same,Any treatment-related TEAE,[2]; [6],2 (25.0) n (%)
same,Deaths,[2]; [6],0 n (%)
same,Diarrhoea,[2]; [6],1 (12.5) n (%)
same,Dizziness,[2]; [6],0 n (%)
same,Dyspepsia,[2]; [6],1 (12.5) n (%)
same,Gastrointestinal Disorders,[2]; [6],2 (25.0) n (%)
same,Headache,[2]; [6],1 (12.5) n (%)
same,Nervous System Disorders,[2]; [6],1 (12.5) n (%)
same,AE leading to study discontinuation,[2]; [7],0 n (%)
same,Any SAE,[2]; [7],0 n (%)
same,Any TEAE,[2]; [7],2 (25.0) n (%)
same,Any treatment-related TEAE,[2]; [7],2 (25.0) n (%)
same,Deaths,[2]; [7],0 n (%)
same,Diarrhoea,[2]; [7],0 n (%)
same,Dizziness,[2]; [7],1 (12.5) n (%)
same,Dyspepsia,[2]; [7],0 n (%)
same,Gastrointestinal Disorders,[2]; [7],0 n (%)
same,Headache,[2]; [7],1 (12.5) n (%)
same,Nervous System Disorders,[2]; [7],2 (25.0) n (%)
same,AE leading to study discontinuation,[2]; [8],0 n (%)
same,Any SAE,[2]; [8],0 n (%)
same,Any TEAE,[2]; [8],0 n (%)
same,Any treatment-related TEAE,[2]; [8],0 n (%)
same,Deaths,[2]; [8],0 n (%)
same,Diarrhoea,[2]; [8],0 n (%)
same,Dizziness,[2]; [8],0 n (%)
same,Dyspepsia,[2]; [8],0 n (%)
same,Gastrointestinal Disorders,[2]; [8],0 n (%)
same,Headache,[2]; [8],0 n (%)
same,Nervous System Disorders,[2]; [8],0 n (%)
same,AE leading to study discontinuation,[2]; [9],0 n (%)
same,Any SAE,[2]; [9],0 n (%)
same,Any TEAE,[2]; [9],0 n (%)
same,Any treatment-related TEAE,[2]; [9],0 n (%)
same,Deaths,[2]; [9],0 n (%)
same,Diarrhoea,[2]; [9],0 n (%)
same,Dizziness,[2]; [9],0 n (%)
same,Dyspepsia,[2]; [9],0 n (%)
same,Gastrointestinal Disorders,[2]; [9],0 n (%)
same,Headache,[2]; [9],0 n (%)
same,Nervous System Disorders,[2]; [9],0 n (%)
same,tolerability,[2]; healthy participants and participants with mild to severe hepatic impairment,well-tolerated
